Test results from article PMC9312238, “Novel Organoselenium Redox Modulators with Potential Anticancer, Antimicrobial, and Antioxidant Activities” (Antioxidants, 2022).
In brackets after ≈: the same amount, converted by molar mass. Read-outs that look alike come from different tables or passages of the source.

Legend:
[1] = system: Staphylococcus aureus; experiment: MIC by microdilution, S. aureus; format: cell-based
Method: The antimicrobial activities of the OSe compounds were evaluated against C. albicans yeast, as well as E. coli and S. bacteria, employing the agar well diffusion assay. Furthermore, the MICs (in µM) were determined by the microdilution method according to the reported protocol. More details are in the Supporting Information. […]
(§1) 1.1.1. The antimicrobial activity
(§2) The antimicrobial activities of the OSe compounds were evaluated against C. albicans yeast as well as E. coli gram-negative and S. aureus gram-positive bacteria employing the agar well diffusion assay. Briefly, a concentration of 1 mM was prepared for each compound by dissolving in DMSO. Paper discs of standard size […] were steri-lized in an autoclave and soaked in 20 µL of the test compounds, and placed in the Petri dishes, which in turn contain a nutrient media (agar 20 g, peptone 5 g, and beef extract 3 g) seeded with the dedicated strain. Incubation lasted for 24 h at 36
(§3) Furthermore, the MICs (in µM) were determined by the microdilution method according to the reported protocol. […]
(§4) Inhibition%= (Ablank-Asample)/(Ablank)*100. (1)

[2] = system: HepG2 cells; experiment: cells; format: cell-based, human; settings: for IC50: MTT, 24 h incubation, HepG2 cells, read-out: HepG2 IC50; for HepG2 TI (IC50 WI-38 / IC50 HepG2): therapeutic index, ratio of WI-38 IC50 to HepG2 IC50
Method: Cells were obtained from the ATCC Company (VACSERA), Cairo, Egypt. MTT assay were performed according to the literature method. More details are in the Supporting Information.
Recently, OSe compounds gained much attention as possible drug candidates due to their various pharmacological properties. Our group has reported several OSe candidates with potential anticancer, antimicrobial, and antioxidant activities. Therefore, the anticancer attributes of the newly prepared OSe compounds were estimated using the MTT assay against MCF-7 and HepG2 and compared with their respective cytotoxicity in WI-38 primary cells. The anthracycline drug doxorubicin was used as the standard. The minimal inhibition concentration required to kill 50% of the cells (IC50) was calculated from dose-response curves presented in Table 1. Moreover, the therapeutic index (TI) was also calculated (according to Equation (1)), which is considered a measure of the selectivity and safety of the synthesized compounds. (1) TI=IC50 for the normal WI38 cells/IC50 for the cancer cells […]
1.1. The biological assays
1.1.1. The anticancer activity
The breast adenocarcinoma (MCF-7), Hepatocellular carcinoma (HEPG-2), and nor-mal fibroblast (WI-38) cells were obtained from ATCC via Holding company for biological products and vaccines (VACSERA), Cairo, Egypt. The reagents RPMI-1640 medium, MTT, DMSO, and fetal bovine serum was obtained from Sigma Aldrich. Dulbecco’s modified Eagle’s medium was used as the culture medium for the cells, and the cytotoxicity was evaluated using the reported MTT assay. Doxorubicin was used as the positive reference, and the IC50 values were obtained from the corresponding dose-response curve.
This colorimetric assay is based on converting the yellow tetrazolium bromide (MTT) to a purple formazan derivative by mitochondrial succinate dehydrogenase in viable cells.
Cell lines were cultured in RPMI-1640 medium with 10% fetal bovine serum. Antibiotics added were 100 units/ml penicillin and 100µg/ml streptomycin at 37 C in a 5% Co2 incu-bator. The cell lines were seeded in a 96-well plate at a density of 1.0x10^4 cells/well. at 37 C for 48 h under 5% Co2. After incubation, the cells were treated with different concentra-tions of compounds and incubated for 24 h. After 24 h of drug treatment, 20 µl of MTT solution at 5mg/ml was added and incubated for 4 h. Finally, dimethyl sulfoxide (DMSO) in the volume of 100 µl is added to each well to dissolve the purple formazan formed. The colorimetric assay is measured and recorded at an absorbance of 570 nm using a plate reader (EXL 800, USA). The percentage of the relative cell viability was calculated as (A570 of treated samples/A570 of the untreated sample) X 100. […]
as §4

[3] = DPPH radical scavenging bioassay; format: biochemical; settings: for radical scavenging activity, DPPH assay: compound 1 mM in MeOH, read after 0.5 h at 517 nm; for IC50: concentration decreasing absorbance by 50%
From the text: The antioxidant activity was estimated by ABTS and DPPH bioassays, according to the reported literature method. More details are in the Supplementary Materials.
Recently, OSe compounds were thoroughly used as redox modulators to control many complicated diseases (e.g., cancer and neurodegenerative diseases). The DPPH and ABTS bioassays were extensively used as rapid tools for estimating the antioxidant potency of OSe compounds [50, 51]. Ascorbic acid was used as a standard control, and the antioxidant potency was measured by the ability of the compounds to decolorize the characteristic colors of the ABTS^. and DPPH^. radicals by following the colorimetric decline in absorbance at 734 and 517 nm, respectively (Figure 2).
Figure 2 Evaluation of the antioxidant properties of the OSe compounds employing the ABTS and DPPH assays. All measurements are mean ± SD. In the DPPH assay: absorbance was read after 0.5 h of mixing […] of DPPH with […] of OSe compounds (1 mM, MeOH) at 517 nm. In the ABTS assay: […] of each OSe compound (1 mM, phosphate-buffered methanol) was mixed with the ABTS solution (60 mM), and absorbance was monitored at 734 nm. […]
1.1.1. The antioxidant activity
The hydrogen atom or electron donation ability of the corresponding compounds was measured by estimating the bleaching of the purple color of a methanolic solution of DPPH [29]. This spectrophotometric assay uses stable DPPH. reagent. The sample was prepared by adding […] of the OSe compounds (1 mM in methanol) to […] DPPH in methanol. After 30 min of incubation in the dark, the absorbance was read against a blank at 517 nm. Ascorbic acid (vitamin C) and ebselen were used as standard antioxi-dants (positive control). A blank sample was run without DPPH. A negative control sam-ple was run using methanol instead of the sample. The radical scavenging activity was calculated using the following equation:
as §4

[4] = system: Staphylococcus aureus; experiment: Agar diffusion assay, S. aureus; format: cell-based; design: S. aureus A% (activity index): concentration or dose not given beside the values; settings: for S. aureus A% (activity index): zone of test compound / zone of standard (ampicillin) x 100; for zone of inhibition at 20 µM: Staphylococcus aureus, read-out: S. aureus IZD (mm)
Method: The antimicrobial activities of the OSe compounds were evaluated against C. albicans yeast, as well as E. coli and S. bacteria, employing the agar well diffusion assay. Furthermore, the MICs (in µM) were determined by the microdilution method according to the reported protocol. More details are in the Supporting Information.
Compounds were evaluated for their antimicrobial activity against the Gram-negative bacteria Escherichia coli (E. coli) and the Gram-positive bacteria Staphylococcus aureus (S. aureus), as well as the Candida albicans (C. albicans) fungal strain, using the agar diffusion assay. Ampicillin and clotrimazole were used as standards. Indeed, the antimicrobial properties of the OSe compounds were also obtained from the activity index percentage (A%) according to Equation (2). (2) A%=Zone of inhibition by test compound diametre/Zone of inhibition by standard diametre×100 . […]
as §1, §2, §3, §4

[5] = system: Escherichia coli; experiment: Agar diffusion assay, E. coli; format: cell-based; design: E. coli A% (activity index): concentration or dose not given beside the values; settings: for E. coli A% (activity index): zone of test compound / zone of standard (ampicillin) x 100; for zone of inhibition at 20 µM: Escherichia coli, read-out: E. coli IZD (mm)
[6] = inhibition zone diameter, six-mm disks soaked with 20 μM of compound

Row | Compound | MIC (μM) S. aureus ([1]; microdilution) | IC50 [2] | HepG2 TI (IC50 WI-38 / IC50 HepG2) [2] | radical scavenging activity, DPPH assay [3] | IC50 [3] | S. aureus IZD (mm) [4, 6] | S. aureus A% (activity index) [4] | E. coli IZD (mm) [5, 6] | E. coli A% (activity index) [5] | IC50 ([2]; Homo sapiens) | zone of inhibition at 20 µM [4, 6] | zone of inhibition at 20 µM [5, 6] | MIC ([1]; Staphylococcus aureus, read-out: MIC (μM) S. aureus)
1 | 2-((4-(2-(3-hydroxynaphthalen-1(4H)-ylidene)hydrazinyl)phenyl)selanyl)-N-phenylacetamide [Compound 9] | 1 µM | 7.48 ± 0.6 µM | 5.3 | 93% | 20.64 ± 0.14 µM | 19 mm | 91% | 20 mm | 87% |  |  |  | 
2 | Nc1ccc([Se]CC(=O)Nc2ccccc2)cc1 [Compound 4, 2-((4-aminophenyl)selanyl)-N-phenylacetamide] |  |  | 2.9 | 80% |  |  | 71% |  | 61% | 18.3 ± 1.3 µM | 15 mm | 14 mm | 
3 | CCOc1ccc(NC(=O)C[Se]c2ccc(N)cc2)cc1 [Compound 5, 2-((4-aminophenyl)selanyl)-N-(4-ethoxyphenyl)acetamide] |  |  |  | 71% |  |  | 57% |  | 44% | > 100 µM | 12 mm | 10 mm | 
4 | Nc1ccc([Se]CC(=O)N[C@@H](Cc2c[nH]c3ccccc23)C(=O)O)cc1 [Compound 6, (2-((4-aminophenyl)selanyl)acetyl)tryptophan] |  |  | 3.2 | 91% | 24.03 ± 0.23 µM |  | 86% |  | 74% | 8.86 ± 0.7 µM | 18 mm | 17 mm | 2 µM (≈ 0.833 µg/mL)
5 | O=C(O)CCC(=O)Nc1ccc([Se]CC(=O)Nc2ccccc2)cc1 [Compound 11, 4-oxo-4-((4-((2-oxo-2-(phenylamino)ethyl)selanyl)phenyl)amino)butanoic acid] |  |  | 2.5 | 76% |  |  | 62% |  | 52% | 26.7 ± 1.9 µM | 13 mm | 12 mm | 
6 | O=C(C[Se]c1ccc(N2C(=O)CCC2=O)cc1)Nc1ccccc1 [Compound 14, 2-((4-(2,5-dioxopyrrolidin-1-yl)phenyl)selanyl)-N-phenylacetamide] |  |  | 5 | 77% |  |  | 67% |  | 57% | 12.6 ± 1 µM | 14 mm | 13 mm | 
7 | C[Se]c1ccc(NC(=O)C=CC(=O)O)cc1 [Compound 15, 4-((4-(methylselanyl)phenyl)amino)-4-oxobut-2-enoic acid] |  |  | 2 | 87% |  |  | 71% |  | 65% | 9.94 ± 0.8 µM | 15 mm | 15 mm | 
8 | C[Se]c1ccc(NC(=O)CCC(=O)O)cc1 [Compound 16, 4-((4-(methylselanyl)phenyl)amino)-4-oxobutanoic acid] |  |  | 0.7 | 67% |  |  | 43% |  |  | 32.6 ± 2.3 µM |  | 10 mm | 
